In BindingDB's records for doi:10.1016/s0960-894x(99)00488-6 (Smithkline Beecham Pharmaceuticals, 1999):
pIC50: −log10 of the molar value.

Molecular target: Tyrosine--tRNA ligase (Staphylococcus aureus)
Experiment: Compound was tested for inhibition of Staphylococcus aureus tyrosyl tRNA Synthetase

pIC50 | Structure (SMILES)
4.96 | N[C@@H](Cc1ccc(O)cc1)C(=O)N[C@H](C(=O)O)c1ccc(O)c(O)c1 [(S)-[(S)-2-Amino-3-(4-hydroxy-phenyl)-propionylamino]-(3,4-dihydroxy-phenyl)-acetic acid]
6.05 | N[C@@H](Cc1ccc(O)cc1)C(=O)N[C@H](C(=O)O)c1ccccc1 [(S)-[(S)-2-Amino-3-(4-hydroxy-phenyl)-propionylamino]-phenyl-acetic acid]
5.11 | N[C@@H](Cc1ccc(O)cc1)C(=O)NC(C(=O)O)c1ccccc1F (stereo partly drawn) [[(S)-2-Amino-3-(4-hydroxy-phenyl)-propionylamino]-(2-fluoro-phenyl)-acetic acid]
5.92 | COC(=O)C(NC(=O)[C@@H](N)Cc1ccc(O)cc1)c1ccccc1O (stereo partly drawn) [[(S)-2-Amino-3-(4-hydroxy-phenyl)-propionylamino]-(2-hydroxy-phenyl)-acetic acid methyl ester]
6.10 | N[C@@H](Cc1ccc(O)cc1)C(=O)NC(C(=O)O)c1ccccc1O (stereo partly drawn) [[(S)-2-Amino-3-(4-hydroxy-phenyl)-propionylamino]-(2-hydroxy-phenyl)-acetic acid]
5.47 | N[C@@H](Cc1ccc(O)cc1)C(=O)NC(C(=O)O)c1cccc(O)c1 (stereo partly drawn) [[(S)-2-Amino-3-(4-hydroxy-phenyl)-propionylamino]-(3-hydroxy-phenyl)-acetic acid]
